{
  "source": "patent EP4458804A1",
  "about": "“METHOD FOR PRODUCING AN OBJECT, PHENALEN-1-ONE COMPOUND AND USE THEREOF” (TriOptoTec GmbH, priority 2023, dated 2024)",
  "key": {"[1]": {"assay": "Washability test C following DIN EN ISO 11998, 200 sponge cycles with disinfectant solution (Beispiel 10 C)", "assay_type": "physicochemical", "conditions": "TPU, Rezeptur 1 nach Beispiel 2", "description": "Der Test wurde in Anlehnung an die DIN EN ISO 11998:2006-10 (\"Beschichtungsstoffe - Bestimmung der Nassabriebbeständigkeit und der Reinigungsfähigkeit von Beschichtungen (ISO 11998:2006)\"; Ausgabedatum: 2006-10) durchgeführt, um das Auswaschen der verschiedenen Farbstoffe in den Kunststofffolien nach mechanischer Belastung zu beurteilen.\nHierzu wurden 200 Zyklen mit einem Anpressdruck von 135g angewendet. Es wurde ein Schwamm mit 4,0 mL Probelösung vorbereitet, die zu testende Folie eingespannt und der Schwamm aufgebracht. 200 Zyklen entsprachen dabei circa 5 min Kontaktzeit des Schwamms und der Oberfläche. Nach dem Test wurde die Folie entnommen und im UV-VIS Spektrometer vermessen, um die ausgewaschene Menge an Farbstoff zu bestimmen.\nDer jeweils gemessene Wert vor dem Test und nach Abschluss der 200 Zyklen wurde verglichen und daraus ein prozentualer Verlust ermittelt.\nVorbereitet wurde die Folie nach Beispiel 2. Die zu verwendete Probelösung entsprach 5 Gew.-% Incidin Plus Lösung, bezogen auf das Gesamtgewicht der Probelösung.\nIncidin Pro, der Firma ECOLAB Deutschland GmbH (Monheim), ist ein flüssiges Konzentrat, das sich zur Reinigung und Desinfektion medizinischer Geräte und Flächen in Einrichtungen des Gesundheitswesens angewendet wird.\nDer Test ermittelt somit den nach wiederholtem flächigem Abwischen mit einem Desinfektionsmittel aus einer behandelten Oberfläche ausgetragenen Photokatalysator."}, "verschiedene Virusstämme": {"tested_on": "verschiedene Virusstämme", "assay": "Antiviral activity of impregnated films following ISO 21702 with illumination (Beispiel 17)", "conditions": "TPU film, Rezeptur 1, 1 mM, light 20mW/cm^2 for 83 min"}, "E.coli 10536": {"tested_on": "E.coli 10536", "assay": "Antibacterial activity of impregnated films, modified ISO 22196 with illumination (Beispiel 12)", "assay_type": "cell-based", "conditions": "TPU Folie, Rezeptur 1, 1 mM F-24b; Licht 20mW/cm2 für 10min; Gram-negativ", "description": "(§1) Die Bestimmung der antimikrobiellen Aktivität erfolgte nach einer modifizierten Version der ISO 22196:2011-08 (\"Messung von antibakterieller Aktivität auf Kunststoff- und anderen porenfreien Oberflächen\", Ausgabedatum: 2011-08).\n(§2) Bei der Testdurchführung wurde ein dünner Flüssigkeitsfilm, in dem die Bakterien enthalten sind (1,25 x 10^4 /cm^2), direkt auf die Probenkörper (3 x 3 cm) aufgebracht. Direkt nach Beimpfung wurden von der Nullprobe die Bakterien von den Probenkörperoberflächen mittels Ultraschall und Vortexen abgelöst und die Keimzahl (KBE (engl. CFU), Kolonie-bildende Einheit) bestimmt (t0-Wert).\n(§3) Nach 4h wurden überlebende Bakterien von den Probenkörperoberflächen mittels Ultraschall und Vortexen abgelöst und die Keimzahl bestimmt (t4-Wert).\n(§4) Im Unterschied zu der in der ISO 22196:2011-08 beschreibenen Methode wurde das Inokulum nicht mit einer Folie abgedeckt und die Inkubationszeit wurde von 24 auf 4 Stunden reduziert. Weiterhin wurden die Probenkörper der Proben 3 und 4 mit Licht der Intensität 20mW/cm2 für 10min belichtet, um eine biozide Wirkung nach Bestrahlung mit elektromagnetischer Strahlung zu bestimmen.\n(§5) Verwendet wurden TPU Folienstücke, die nach dem in Beispiel 4 beschriebenen Verfahren mit Rezeptur 1 behandelt wurden. Rezeptur 1 wurde hergestellt nach Beispiel 2. […] Der Test wurde in Anlehnung an ISO 22196 nach oben beschriebener Methode durchgeführt."}, "Acinetobacter pitii": {"tested_on": "Acinetobacter pitii", "assay": "Antibacterial activity of impregnated films, modified ISO 22196 with illumination (Beispiel 12)", "assay_type": "cell-based", "conditions": "TPU Folie, Rezeptur 1, 1 mM F-24b; Licht 20mW/cm2 für 10min; Gram-negativ", "description": "as §1, §2, §3, §4, §5"}, "S.enterica": {"tested_on": "S.enterica", "assay": "Antibacterial activity of impregnated films, modified ISO 22196 with illumination (Beispiel 12)", "assay_type": "cell-based", "conditions": "TPU Folie, Rezeptur 1, 1 mM F-24b; Licht 20mW/cm2 für 10min; Gram-negativ", "description": "as §1, §2, §3, §4, §5"}, "[2]": {"assay": "Leaching test A: screening immersion 24 h, UV-VIS of supernatant (Beispiel 10 A)", "assay_type": "physicochemical", "design": "Abs. nach Auswaschen: unit not given here", "conditions": "for Berechneter Verlust in %: Rezeptur 1 nach Beispiel 1; for Abs. nach Auswaschen: Rezeptur 1 nach Beispiel 1, supernatant", "description": "Um das Auswaschen der verschiedenen Farbstoffe in den Kunststofffolien zu beurteilen, wurde ein Immersionstest in deionisiertem Wasser mit einem pH-Wert von (6 ± 1) (oder gegebenenfalls anderen Lösungsmitteln) und einer Wassertemperatur von (22 ± 3) °C für 24 Stunden durchgeführt.\nDazu wurde ein Folienstück definierter Größe (3 cm x 3 cm) imprägniert (nach Rezeptur 1, Beispiel 1) und anschließend für 24 Stunden in eine definierte Menge deionisiertem Wasser (12,0 mL) gegeben und durch eine Schüttelplatte in Bewegung gehalten. Nach der angegeben Immersionszeit wurde die Folie entnommen und der Überschuss im UV-VIS Spektrometer vermessen, um die ausgewaschene Menge an Farbstoff zu bestimmen. Die Menge wird durch die definierte Größe der Folie und definierte Flüssigkeitsmenge auf einen Quadratzentimeter zurückgerechnet.\nDieser Immersionstest diente dazu, das Auswaschverhalten verschiedener Farbstoffe aus verschiedenen Kunststofffolien zu beurteilen. Weiter sollte er dabei helfen, verschiedene Farbstoffklassen oder verschiedene Farbstoffderivate einer Farbstoffklasse bezüglich dieser Charakteristik miteinander zu vergleichen.\nDie zugeschnittenen Folien werden in einem geeigneten Behälter vollständig mit dem Prüfmedium (typischerweise deionisiertes Wasser) bedeckt. Anschließend wird der Behälter zugedeckt und auf die Schüttelplatte aufgebracht. Bei geringer Geschwindigkeit der Platte wird für 24 Stunden gewartet. Nach der Immersion wurden 3 mL des Überstandes durch Absorptionsspektroskopie vermessen.\nDie Auswertung erfolgte über das Verhältnis der max. Absorptionswerte einer reinen Farbstofflösung definierter Konzentration und des vermessenen Überstandes. Die Ergebnisse sind in Tabelle 50 dargestellt. Tabelle 50: Auswaschverhalten verschiedener Photokatalysatoren nach Immersionstest A"}, "S.aureus ATCC 6538": {"tested_on": "S.aureus ATCC 6538", "assay": "Antibacterial activity of impregnated films, modified ISO 22196 with illumination (Beispiele 11-16, 25)", "assay_type": "cell-based", "description": "as §1, §2, §3, §4, §5\nTPU-Folienstücke wurden ebenfalls nach dem in Beispiel 4 beschriebenen Verfahren mit verschiedenen Rezepturen behandelt, die gemäß Beispiel 2 hergestellt wurden. Die Farbstoffkonzentration in der Imprägnierlösung betrug jeweils 1 mM F-24b. Der Test wurde in Anlehnung an ISO 22196 nach oben beschriebener Methode durchgeführt.\nDie Farbstoffkonzentration in der Imprägnierlösung betrug jeweils 1 mM.\nDie Photokatalysator-Konzentration von F-24b wurde variiert.\nEs wurde ein Bakterientest in Anlehnung an ISO 22196 nach oben beschriebener Methode durchgeführt."}, "[3]": {"conditions": "medium 5% Neutralseife, plastic PVC"}, "[4]": {"conditions": "medium 5% Neutralseife, plastic TPU"}},
  "data": [
    {"molecule": "CC(C)(O)c1cc[n+](CC2=Cc3cccc4cccc(c34)C2=O)cc1", "note": "[F-24b]", "values": [
      {"measurement": "Abs. vor Auswaschen", "setting": "[1]; Washability test C (DIN EN ISO 11998), film before test", "value": "0,121"},
      {"measurement": "Berechneter Verlust in %", "setting": "[1]; Washability test C, 200 sponge cycles, 5 Gew.-% Incidin Plus Lösung", "value": "1,7%"},
      {"measurement": "Abs. nach Auswaschen", "setting": "[1]; Washability test C, film after 200 sponge cycles, 135g, 5 Gew.-% Incidin Plus Lösung", "value": "0,119"},
      {"measurement": "Log10 Reduktion Hauptprobe", "setting": "verschiedene Virusstämme; Virus: Influenza A Virus (H1N1)", "value": "2,5 ± 0,5 log10"},
      {"measurement": "Log10 Reduktion Hauptprobe", "setting": "verschiedene Virusstämme; Virus: Modified Vaccinia Virus Ankara (MVA)", "value": "4,6 ± 0,6 log10"},
      {"measurement": "Log10 Reduktion Hauptprobe", "setting": "E.coli 10536", "value": "4,8 ± 0,4 log10"},
      {"measurement": "Log10 Reduktion Hauptprobe", "setting": "Acinetobacter pitii", "value": "3,0 ± 0,7 log10"},
      {"measurement": "Log10 Reduktion Hauptprobe", "setting": "S.enterica", "value": "4,2 ± 0,6 log10"},
      {"measurement": "Berechneter Verlust in %", "setting": "[2]; [3]", "value": "3,8%"},
      {"measurement": "Abs. nach Auswaschen", "setting": "[2]; [3]", "value": "0,024"},
      {"measurement": "Berechneter Verlust in %", "setting": "[2]; [4]", "value": "10,7%"},
      {"measurement": "Abs. nach Auswaschen", "setting": "[2]; [4]", "value": "0,061"},
      {"measurement": "Berechneter Verlust in %", "setting": "[2]; medium 70% IPA, plastic PVC", "value": "25,4%"},
      {"measurement": "Abs. nach Auswaschen", "setting": "[2]; medium 70% IPA, plastic PVC", "value": "0,160"},
      {"measurement": "Berechneter Verlust in %", "setting": "[2]; medium 70% IPA, plastic TPU", "value": "34,0%"},
      {"measurement": "Abs. nach Auswaschen", "setting": "[2]; medium 70% IPA, plastic TPU", "value": "0,194"},
      {"measurement": "Berechneter Verlust in %", "setting": "[2]; medium Wasser, plastic EVA", "value": "2,6%"},
      {"measurement": "Abs. nach Auswaschen", "setting": "[2]; medium Wasser, plastic EVA", "value": "0,015"},
      {"measurement": "Berechneter Verlust in %", "setting": "[2]; medium Wasser, plastic SEPS", "value": "4,7%"},
      {"measurement": "Abs. nach Auswaschen", "setting": "[2]; medium Wasser, plastic SEPS", "value": "0,027"},
      {"measurement": "Berechneter Verlust in %", "setting": "[2]; medium Wasser, plastic TPU", "value": "1,4%"},
      {"measurement": "Abs. nach Auswaschen", "setting": "[2]; medium Wasser, plastic TPU", "value": "0,008"},
      {"measurement": "Log10 Reduktion Hauptprobe", "setting": "S.aureus ATCC 6538; Beispiel 13, TPU film, Rezeptur 1 nach Beispiel 2, 1 mM in impregnation solution, light 20mW/cm2 10min", "value": "4,0 ± 0,3 log10"},
      {"measurement": "Log10 Reduktion Hauptprobe", "setting": "S.aureus ATCC 6538; Beispiel 13, TPU film, Rezeptur 2 nach Beispiel 2, 1 mM in impregnation solution, light 20mW/cm2 10min", "value": "1,8 ± 1,3 log10"},
      {"measurement": "Log10 Reduktion Hauptprobe", "setting": "S.aureus ATCC 6538; Beispiel 13, TPU film, Rezeptur 3 nach Beispiel 2, 1 mM in impregnation solution, light 20mW/cm2 10min", "value": "4,2 ± 0,8 log10"},
      {"measurement": "Log10 Reduktion Hauptprobe", "setting": "S.aureus ATCC 6538; Beispiel 13, TPU film, Rezeptur 8 nach Beispiel 3, 1 mM in impregnation solution, light 20mW/cm2 10min", "value": "3,5 ± 0,5 log10"},
      {"measurement": "Log10 Reduktion Hauptprobe", "setting": "S.aureus ATCC 6538; Beispiel 15, TPU film, Rezeptur 1, photocatalyst concentration 0,5 mM", "value": "2,5 ± 1,4 log10"},
      {"measurement": "Log10 Reduktion Hauptprobe", "setting": "S.aureus ATCC 6538; Beispiel 15, TPU film, Rezeptur 1, photocatalyst concentration 0,25 mM", "value": "2,8 ± 1,3 log10"},
      {"measurement": "Log10 Reduktion Hauptprobe", "setting": "S.aureus ATCC 6538; Beispiel 15, TPU film, Rezeptur 1, photocatalyst concentration 1 mM", "value": "3,5 ± 0,5 log10"},
      {"measurement": "Log10 Reduktion Hauptprobe", "setting": "S.aureus ATCC 6538; Beispiel 16, film material CPI (Polyimid), Rezeptur 1, 1 mM", "value": "3,0 ± 0,1 log10"},
      {"measurement": "Log10 Reduktion Hauptprobe", "setting": "S.aureus ATCC 6538; Beispiel 16, film material Nitril, Rezeptur 1, 1 mM", "value": "3,8 ± 0,3 log10"},
      {"measurement": "Log10 Reduktion Hauptprobe", "setting": "S.aureus ATCC 6538; Beispiel 16, film material PET-G, Rezeptur 1, 1 mM", "value": "4,0 ± 0,1 log10"},
      {"measurement": "Log10 Reduktion Hauptprobe", "setting": "S.aureus ATCC 6538; Beispiel 16, film material PVC, Rezeptur 1, 1 mM", "value": "3,9 ± 0,8 log10"},
      {"measurement": "Log10 Reduktion Hauptprobe", "setting": "S.aureus ATCC 6538; Beispiel 16, film material Silikon, Rezeptur 1, 1 mM", "value": "3,4 ± 0,1 log10"},
      {"measurement": "Log10 Reduktion Hauptprobe", "setting": "S.aureus ATCC 6538; Beispiel 16, film material Surlyn, Rezeptur 1, 1 mM", "value": "3,6 ± 0,5 log10"},
      {"measurement": "Log10 Reduktion Hauptprobe", "setting": "S.aureus ATCC 6538; Beispiel 16, film material TPU, Rezeptur 1, 1 mM", "value": "4,0 ± 0,3 log10"},
      {"measurement": "Log10 Reduktion Hauptprobe", "setting": "S.aureus ATCC 6538; TPU Folie, Rezeptur 1, 1 mM F-24b, Licht 20mW/cm2 für 10min, Gram-positiv", "value": "4,0 ± 0,3 log10"}
    ]}
  ]
}
